# Measured values reported in patent publication US5705649A, “Protein staining compositions and methods” (Promega Corporation, priority 1995, dated 1998).
# Legend:
# [1] = system: Promega Mid-Range Molecular Weight Standards; test: Post-electrophoretic detection of protein using NBODY derivatives; conditions: crude dye solution in 5% acetic acid, 20% ethanol, one hour
# Description: Promega Mid-Range Molecular Weight Standards were diluted and heated as described in Example 27 to produce solutions containing 125, 25, 5 and 1 ng of protein per band in 10 microliters of solution. A 10% Tris Glycine, precast polyacrylamid gel from Novex Corp. (San Diego, Calif., USA, Cat. No. EC 6075.) was loaded with 10 microliters of the just described, diluted molecular weight standard solutions in lanes so that two lanes, each with the same diluted standard solution, were separated by a blank lane. The gel was developed using conditions recommended by the manufacturer and following development, the gel was cut in the blank lane. The segments were placed in 50 ml of 5% acetic acid, 20% ethanol. Six hundred microliters of the NBODY-C12 reaction mixture from Example 40 was added to the solution with one of the segments of a pair (of lanes with the same protein molecular weight standard solution) and three hundred microliters of the NBODY-C16 reaction mixture from Example 40 was added to the solution with the other segment of the same pair. After one hour of incubation, the gel segments were photographed on a transilluminator as described in example 27. Protein bands were detected in the lanes containing the 125 and 25 ng of protein per band using this method and the crude dye solutions from Example 40.
# [2] = system: Promega Mid Range Molecular Weight Standards; test: Post-electrophoretic staining of gels with octyl and dodecyl derivatives of MDPF
# Description: A fifteen well, 12% gel was made as described in example 5 and was loaded with diluted Promega Mid Range Molecular Weight Standards to produce lanes containing samples having 200, 100, 80, 60, 40, 20 and 10 ng of protein per band. The gel was run as described in example 5 except that Promega Green 1 was not added to the cathode buffer. After electrophoresis, the gel was cut between lanes to produce gel segments containing fractionated protein samples at each of the concentrations listed above and these were placed in 30% methanol for 25-30 min at room temperature. The stock stain solutions of Example 33 were then diluted into distilled water at a concentration of 0.5% (v/v), and 50 ml of these solutions were used to stain the gels. After 1 hr incubation, the gels were visualized and photographed using a transilluminator. […] The gels were then placed in 5% methanol and allowed to destain overnight.
# After overnight destaining, the gel segments were again placed upon a transilluminator, visualized and photographed. […] Nonetheless, these derivatives can be used for sensitive post-electrophoretic staining of proteins in gels.
# [3] = system: Promega Mid Range Molecular Weight Standards; test: In-gel staining with octyl and dodecyl derivatives of MDPF; conditions: stain stock in cathode buffer and wells
# Description: (§1) Two 10-well, 12% gels were made as described in Example 5 and were loaded with diluted Promega Mid Range Molecular Weight Standards to produce lanes containing 200, 100, 80, 60, 40, 20, 10, and 5 ng of protein per band following fractionation by electrophoresis. These protein levels were applied to the gels in 10 μl of loading buffer described in Example 5 and then 10 μl of a 1:100 dilution of the derivative stock solution (Example 33) into a solution of 20% glycerol, 1% sodium dodecyl sulfate was added to the wells. The gels were then run as described in Example 5 except that 0.5 ml of derivative stain stock was added to the cathode buffer in the gel and the Promega Green 1 dye was omitted from the solution. The gels were placed on a transilluminator following electrophoresis and were observed visually and photographed as described above. Staining of the protein bands was seen down to 80 ng of protein per band for the dodecyl derivative for all proteins and, for the 31 kdalton standard (carbonic anhydrase) down to 60 ng/band. Staining of the bands was seen to 60 ng/band for all proteins with the octyl derivative, with the carbonic anhydrase being detectable down to 40 ng per band. Therefore both stains can be used for in-gel staining of proteins.
# carbonic anhydrase = test: as above; conditions: 31 kdalton standard; stain stock in cathode buffer and wells
# Description: as §1
# [4] = system: Promega Mid Range Molecular Weight Standards; test: Detection of fractionated protein in SDS-PAGE gels using dansyl derivatives made in acetone
# Description: Several 15-well, SDS-PAGE minigels were poured as described in Example 27 and loaded with Promega Mid Range Molecular Weight Standards diluted as described in Example 27 to provide samples containing 1000, 300, 100, 50, 25, 12.5, and 6.25ng of each protein per band in separate lanes of the gel. The samples were fractionated by application of 20 mA per gel until the tracking dye reached the bottom of the gel. All the gels were placed in 10% trichloroacetic acid for 5 min and then incubated for 10 min in 10% (v/v) methanol. The gels were then incubated in a 10% methanol solution containing 2% (v/v) of the derivative eluates (dissolved in 50 ml ethanol) described in Example 28. The gels were transferred to a transilluminator and both visualized and photographed after two hours of staining. The following observations were made. Only the lanes containing 1000 and 300ng of protein per band were visible in the gel incubated with the n-butyl dansyl derivative. The lanes containing the 1000, 300, 100, 50, 25ng per band were visible in the gel incubated with the n-hexyl derivative as were some of the bands in the 12.5 ng per band lane.
# After overnight incubation in the stain solutions, the gels were re-observed and rephotographed.
# The gels were then placed in 1% acetic acid to remove any unbound stain and rephotographed after three hours of incubation in this solution at room temperature.
# [5] = system: Promega Mid Range Molecular Weight standard; test: Optimization of staining with dodecyl dansyl stain, acetic acid/ethanol fixing and staining
# Description: Two 12% SDS-PAGE gels were run with diluted Promega Mid Range Molecular Weight standard to produce samples of proteins at 20, 10, and 5 ng of protein per band present in the gels. The gels were made as in Example 27 and proteins were fractionated on the gels in a BioRad Miniprotean II gel system as recommended by the manufacturer. The gels were cut to produce segments of gel containing three lanes of samples containing one lane each of the protein concentrations described above and placed for 15 min in 50 ml of one of the following fixative solutions: 30% ethanol, 20% acetic acid; 40% ethanol, 10% acetic acid; 40% ethanol, 20% acetic acid; 50% ethanol, 10% acetic acid; and 50% ethanol, 20% acetic acid. After the 15 min incubation, the gels were transferred into another 50 ml of the same fixative solution containing 50 μl of dodecyl dansyl stain solution (in 50 ml ethanol, Example 28). After 3 hrs., the segments were placed in 50 ml of 50 mM Tris-Cl, pH8.0, for 5 min and then were visualized on a transilluminator and photographed.
# After visualization, the segments were returned to their respective staining solutions and allowed to incubate overnight. The following morning, the segments were visualized and photographed directly on a transilluminator without prior incubation in a different solution.
# [6] = system: Promega Mid Range Molecular Weight Standards; test: Post-electrophoretic detection of protein with purified dansyl derivatives
# Description: Samples of the eluates from purification of the derivatives were diluted 20-fold with ethanol and the absorption of the resulting solutions from 400 to 220 nm was measured. The absorption of the solutions at 328 nm was used as an indication of the concentration of the derivative in the staining studies in Example 27.
# Several SDS-PAGE minigels were made as described in Experiments with Gene Fusions, Silhavy, Berman, Enquist, supra, using the SDS concentrations described by the authors. Samples of Promega Mid Range Molecular Weight Standards were diluted into the loading solution described in the reference above to produce solutions containing 200, 100, 50, 25, and 12.5 ng of each protein species in 10 μl of solution. These solutions were loaded onto the gels and the samples were fractionated in the gels by application of 10 mA per gel until the tracking dye for the samples reached the bottom of the gel. The gels were then rinsed 1 min in distilled water, 15 min in 10% trichloracetic acid (w/v), and then for 15 min in 10% methanol (v/v). The gel segments, approximately 5×6 cm containing the fractionated standard, were then transferred to a 2% ethanol solution (50 ml) containing 0.05 OD328 -equivalent of each of the dansyl derivatives (see Example 26).
# The gel segments were returned to their respective staining solutions and were incubated overnight. The following morning, all of the gel segments were again visualized on the transilluminator and photographed as described above. […] In general, relatively equivalent staining of bands was obtained as determined by the strength of the fluorescent signal observed for the various fractionated species.
# [7] = system: Promega Mid-Range Molecular Weight Markers; test: In-gel staining with dodecyl dansyl stain; conditions: 0.1% (v/v) stain in cathode buffer
# Description: In order to determine if in-gel staining with dodecyl dansyl stain could be performed, a gel containing the concentrations of reagents in the gel buffers and running buffers listed in Example 5 was made and run as described in Example 5 with two exceptions: 1) dodecyl dansyl stain (in 50 ml ethanol, Example 28) was added to the cathode buffer at 0.1% (v/v) instead of Promega Green 1; 2) Promega Mid-Range Molecular Weight markers were diluted into 1× loading buffer as described in Example 5 and were loaded on the gel to produce lanes containing each protein at concentrations from 1000 ng/lane to 3.1 ng/lane. Following electrophoresis, the gel was placed directly on a transilluminator and visualized and photographed as described above. […] Thus, staining while the gel is running can be performed with the dodecyl dansyl stain and is particularly favorable for protein species with low mobilities.
# [8] = system: Promega Mid-Range Molecular Weight Standards; test: Optimization of post-electrophoretic staining with dodecyl dansyl stain
# Description: In order to determine if alternative staining conditions would improve the detection of protein by fluorescent staining with the dodecyl dansyl stain, the following experiment was performed. Two 12% SDS-PAGE minigels from Bio-Rad Corporation were used to fractionate samples of diluted Promega Mid-Range Molecular Weight Standards which were loaded into alternate lanes of the gel to produce protein bands containing 25 and 5 ng of each protein per band in adjacent lanes. The gels were run as recommended by the manufacturer in Bio-Rad Miniprotean II electrophoresis units and sliced to produce two lane segments containing one lane each of the 25 and 5 ng sample lanes. One slice was placed in each of the following solutions (50 ml) followed by incubation of the segment in a second 50 ml of the solution containing 200 μl of dodecyl dansyl derivative solution (in 50 ml ethanol) of Example 28: distilled water; 1% acetic acid; 1% trichloroacetic acid; 5M sodium chloride; 0.5M Tris base; 0.5M ammonium bicarbonate, pH 5.0; 2M Tris pH8.0; 0.05M sodium hydroxide; and 10% ethanol. The gels were allowed to stain overnight at room temperature and then were observed on a transilluminator to allow visualization and photography of the fluorescently stained bands as described in Example 27. […] It was thought that this is due to an inability of the particular stain derivative used to fluoresce under the highly acidic condition produced in the trichloroacetic acid solution.
# In order to determine if the stain remained intact in these solutions and to standardize the conditions for the stains, the gel segments were then incubated in 50 ml of distilled water. After 1 hr, the segments were re-observed and re-photographed. […] Thus, staining sensitivity is dependent upon staining conditions and mildly acidic conditions appear to improve the sensitivity of staining.
# [9] = after overnight destaining in 5% methanol
smiles,measurement,setting,value
CCCCCCCCCCCCCCCCNC(=O)CCCCCNc1ccc([N+](=O)[O-])c2nonc12 [NBODY-C16],lowest protein per band detected,[1],25 ng
CCCCCCCCN=C1C(c2ccccc2)=COC1(OC)c1ccccc1 (stereo not drawn) [octyl MDPF derivative],lowest protein per band stained (most of the species),"[2]; 0.5% (v/v) stain in water, 1 hr",20 ng
same,retention of fluorescent staining,[2]; [9],almost all of the fluorescent staining of the octyl MDPF derivative stained gel had been lost
same,"lowest protein per band stained, all proteins",[3],60 ng
same,lowest carbonic anhydrase per band stained,carbonic anhydrase,40 ng
CCCCCCCCCCCCNS(=O)(=O)c1cccc2c(N(C)C)cccc12 [dodecyl dansyl derivative],lowest protein per band visible,"[4]; 2% (v/v) eluate in 10% methanol, two hours of staining",300 ng
same,protein per band at which most of the protein species were visible,"[4]; after 1% acetic acid, three hours",6.25 ng
same,protein per band at which at least some of the bands could be visualized,[4]; overnight staining,12.5 ng
same,visibility of protein bands,"[5]; 3 hrs, 30 or 40% ethanol and 10 or 20% acetic acid, 20, 10, 5 ng per band",faintly visible
same,level of protein per band detected,[5]; overnight staining in ethanol/acetic acid,≤ 5 ng
same,staining quality compared to the amino or butyl derivatives,[6],much better stains compared to the amino or butyl derivatives
same,lowest protein amount with visible bands (several of the bands),[6]; 15 min staining,100 ng
same,visibility of protein bands,[6]; overnight staining,easily visible
same,detection of protein species migrating more than halfway through the gel,[7],not easily detected
same,lowest protein per band seen (many of the heavier molecular weight species),[7],12.5 ng
same,staining,"[8]; all other staining solutions, overnight",No other staining solution allowed visualization of the fractionated protein species at this point
same,protein per band displayed as fluorescent bands,"[8]; stain in 0.5M ammonium bicarbonate, pH 5.0, overnight",25 ng
same,protein per band displayed as fluorescent bands,"[8]; stain in 1% acetic acid, overnight",25 ng
same,staining,"[8]; stain in 1% trichloroacetic acid, overnight",neither protein detection nor background staining
same,staining,"[8]; stain in 2M Tris pH 8.0, overnight",much weaker staining
same,staining after distilled water,"[8]; stained in 0.5M ammonium bicarbonate, pH 5.0, then 1 hr water",Staining was seen
same,staining after distilled water,"[8]; stained in 1% acetic acid, then 1 hr water",greater fluorescence
same,staining after distilled water,"[8]; stained in 1% trichloroacetic acid, then 1 hr water",greater fluorescence
same,staining after distilled water,"[8]; stained in 2M Tris pH 8.0, then 1 hr water",Staining was seen
CCCCCCCCCCCCN=C1C(c2ccccc2)=COC1(OC)c1ccccc1 (stereo not drawn) [dodecyl MDPF derivative],lowest protein per band stained,[2]; [9],20 ng
same,"lowest protein per band stained, all proteins",[3],80 ng
same,lowest carbonic anhydrase per band stained,carbonic anhydrase,60 ng
